In US20160264593A1 (priority 2013, published 2016):
Entries after “also recorded” stand apart in the source; their conditions may differ.

Experiment: Pharmacokinetic study of 100 (and metabolite endothal) in SD rats, iv; plasma, liver, brain
Details: for AUCINF / AUClast / Cmax / Tmax / concentration at 0.25 h / concentration at 1 h / concentration at 2 h / concentration at 10 h / concentration at 24 h / concentration at 6 h: rat, in vivo, iv; for concentration at 0.25 h / concentration at 1 h / concentration at 2 h / concentration at 10 h / concentration at 24 h / concentration at 6 h: Endothal liver concentration
Protocol: 100 was administrated via iv route at 0.5, 1.0 and 1.5 mg/kg into SD rats. The blood, liver and brain tissue samples were collected at predetermined times from rats.
Twelve (12) female SD rats per group were dosed by iv with 100. The rats were fasted overnight prior to dosing, with free access to water. Foods were withheld for 2 hours post-dose. Blood, liver and brain tissue samples in two animals each group were collected at each time point, within 10% of the scheduled time for each time point. Two extra animals were used for analytic method development. Blood (>0.3 mL) were collected via aorta abdominalis in anaesthetic animalsinto tubes containing heparin at 15 min, 1, 2, 6, 10 and 24 hours after iv administration. Liver and brain tissues were collected immediately after animal death. The liver and brain tissues were excised and rinsed with cold saline to avoid blood residual. Upon collection, each sample was placed on ice and the blood samples were subsequently centrifuged (4° C., 11000 rpm, 5 min) to separate plasma. The obtained plasma, liver and brain tissue samples were stored at −70° C. until LC-MS/MS analysis.
AUC0-∞ (AUC/NF) is the area under the plasma concentration-time curve with last concentration extrapolated based on the elimination rate constant.

[1] = female, SD, 0.5 mg/kg, 100 iv 0.5 mg/kg, SD rats, individual
[2] = female, SD, 0.5 mg/kg, 100 iv 0.5 mg/kg, SD rats, mean
[3] = female, SD, 1 mg/kg, 100 iv 1.0 mg/kg, SD rats, individual
[4] = female, SD, 1 mg/kg, 100 iv 1.0 mg/kg, SD rats, mean
[5] = female, SD, 1.5 mg/kg, 100 iv 1.5 mg/kg, SD rats, individual
[6] = female, SD, 1.5 mg/kg, 100 iv 1.5 mg/kg, SD rats, mean

With O=C(O)C1C2CCC(O2)C1C(=O)O (stereo not shown) [Endothal, 7-oxabicyclo[2.2.1]heptane-2,3-dicarboxylic acid] the Endothal brain concentration (100 iv 1.5 mg/kg, SD rats, 10 hr, mean) was “BLQ”, the Endothal brain concentration (100 iv 1.5 mg/kg, SD rats, 24 hr, individual) was “BLQ” and the Endothal liver concentration (100 iv 1.5 mg/kg, SD rats, 24 hr, individual, 1.5 mg/kg) was 52.1 ng/g. The Endothal brain concentration (100 iv 1.5 mg/kg, SD rats, 24 hr, mean) was “BLQ”, the “endothal detectable in brain samples” value (after single iv 100 at 0.5, 1.0 and 1.5 mg/kg) was “not detectable; also recorded: undetectable” and the AUCINF (female, SD, 0.5 mg/kg) was 828 ng·h/mL. The AUClast (female, SD, 0.5 mg/kg) was 546 ng·h/mL, the Cmax (female, SD, 0.5 mg/kg) was 577 ng/mL and the Tmax (female, SD, 0.5 mg/kg) was 15 min. For the same compound, the concentration at 0.25 h [1] was 316 ng/g, the concentration at 0.25 h [2] was 349 ng/g and the concentration at 1 h [1] was 256 ng/g. It also gave a concentration at 1 h [2] of 194 ng/g, a concentration at 2 h [1] of 168 ng/g and a concentration at 2 h [2] of 220 ng/g. It also gave a concentration at 10 h (female, SD, 0.5 mg/kg, 100 iv 0.5 mg/kg, SD rats, 10 hr, mean) of 124 ng/g, a concentration at 24 h (female, SD, 0.5 mg/kg, 100 iv 0.5 mg/kg, SD rats, 24 hr, individual) of 32 ng/g and a concentration at 24 h (female, SD, 0.5 mg/kg, 100 iv 0.5 mg/kg, SD rats, 24 hr, mean) of 34.2 ng/g. The AUCINF (female, SD, 1 mg/kg) was 2750 ng·h/mL, the AUClast (female, SD, 1 mg/kg) was 2487 ng·h/mL and the Tmax (female, SD, 1 mg/kg) was 15 min. For the same compound, the concentration at 0.25 h [3] was 768 ng/g, the concentration at 0.25 h [4] was 1040 ng/g and the concentration at 1 h [4] was 999 ng/g. The concentration at 2 h [4] was 1040 ng/g, the concentration at 6 h [3] was 298 ng/g and the concentration at 6 h [4] was 270 ng/g. The concentration at 10 h (female, SD, 1 mg/kg, 100 iv 1.0 mg/kg, SD rats, 10 hr, individual) was 151 ng/g, the concentration at 10 h (female, SD, 1 mg/kg, 100 iv 1.0 mg/kg, SD rats, 10 hr, mean) was 123 ng/g and the concentration at 24 h (female, SD, 1 mg/kg, 100 iv 1.0 mg/kg, SD rats, 24 hr, individual) was 66.6 ng/g. For the same compound, the concentration at 24 h (female, SD, 1 mg/kg, 100 iv 1.0 mg/kg, SD rats, 24 hr, mean) was 90.8 ng/g, the AUCINF (female, SD, 1.5 mg/kg) was 4730 ng·h/mL and the AUClast (female, SD, 1.5 mg/kg) was 4476 ng·h/mL. For the same compound, the Tmax (female, SD, 1.5 mg/kg) was 15 min, the concentration at 0.25 h [5] was 2300 ng/g and the concentration at 0.25 h [6] was 2230 ng/g. For the same compound, the concentration at 1 h [5] was 2870 ng/g, the concentration at 1 h [6] was 2920 ng/g and the concentration at 2 h [5] was 2950 ng/g. For the same compound, the concentration at 2 h [6] was 2590 ng/g, the concentration at 6 h [5] was 1690 ng/g and the concentration at 6 h [6] was 1510 ng/g. The concentration at 10 h (female, SD, 1.5 mg/kg, 100 iv 1.5 mg/kg, SD rats, 10 hr, mean) was 233 ng/g, the concentration at 24 h (female, SD, 1.5 mg/kg, 100 iv 1.5 mg/kg, SD rats, 24 hr, individual) was 75 ng/g and the concentration at 24 h (female, SD, 1.5 mg/kg, 100 iv 1.5 mg/kg, SD rats, 24 hr, mean) was 63.5 ng/g. The Cmax (female, Sprague-Dawley, 1.5 mg/kg) was 349 to 2960 ng/g, the AUCINF (0.5 mg/kg) was 3095 ng·h/g and the AUClast (0.5 mg/kg) was 2598 ng·h/g. It also gave an AUCINF (1 mg/kg) of 7370 ng·h/g, an AUClast (1 mg/kg) of 6673 ng·h/g and an AUCINF (1.5 mg/kg) of 18850 ng·h/g. The AUClast (1.5 mg/kg) was 18434 ng·h/g.
